Source: ChEMBL document CHEMBL1152546, “N-[2-chloro-9H-purin-6-yl]-N-cyclopropylglycylamino acids and derivatives: synthesis, evaluation as a class of novel analgesics, and 3D QSAR analysis” (2009)

Experiments:
Format in all cases: functional
[1] = system: Mus musculus; experiment: Analgesic activity in ICR mouse assessed as pain threshold variation at 25 umol/kg, po administered as single dose measured after 180 mins by tail flick test relative to control
[2] = system: Mus musculus; experiment: Analgesic activity in ICR mouse assessed as pain threshold variation at 25 umol/kg, po administered as single dose measured after 30 mins by tail flick test relative to control
[3] = system: Mus musculus; experiment: Analgesic activity in ICR mouse assessed as pain threshold variation at 25 umol/kg, po administered as single dose measured after 150 mins by tail flick test relative to control
[4] = system: Mus musculus; experiment: Analgesic activity in ICR mouse assessed as pain threshold variation at 25 umol/kg, po administered as single dose measured after 60 mins by tail flick test relative to control
[5] = system: Mus musculus; experiment: Analgesic activity in ICR mouse assessed as pain threshold variation at 25 umol/kg, po administered as single dose measured after 120 mins by tail flick test relative to control
[6] = system: Mus musculus; experiment: Analgesic activity in ICR mouse assessed as pain threshold variation at 25 umol/kg, po administered as single dose measured after 90 mins by tail flick test relative to control

| Structure (SMILES) | Activity [1] [%] | Activity [2] [%] | Activity [3] [%] | Activity [4] [%] | Activity [5] [%] | Activity [6] [%] |
| --- | --- | --- | --- | --- | --- | --- |
| CSCC[C@H](NC(=O)CN(c1nc(Cl)nc2[nH]cnc12)C1CC1)C(=O)OCc1ccccc1 | 10.66 | 22.22 | 17.64 | 30.76 | 31.55 | 44.55 |
| O=C(CN(c1nc(Cl)nc2[nH]cnc12)C1CC1)N[C@@H](Cc1ccccc1)C(=O)OCc1ccccc1 | 5.15 | 39.38 | 10.73 | 38.92 | 20.4 | 27.14 |
| NC(=O)CC[C@H](NC(=O)CN(c1nc(Cl)nc2[nH]cnc12)C1CC1)C(=O)O | 9.07 | 33.11 | 11.38 | 38.4 | 17.75 | 41.1 |
| O=C(CN(c1nc(Cl)nc2[nH]cnc12)C1CC1)N[C@@H](CO)C(=O)O | 12.32 | 38.65 | 18.83 | 39.76 | 39 | 43.9 |
| C[C@@H](O)[C@H](NC(=O)CN(c1nc(Cl)nc2[nH]cnc12)C1CC1)C(=O)O | 4.69 | 18.59 | 24.02 | 30.07 | 37.59 | 35.87 |
| O=C(O)CC[C@H](NC(=O)CN(c1nc(Cl)nc2[nH]cnc12)C1CC1)C(=O)O | 10.05 | 26.81 | 29.46 | 33.25 | 30.08 | 44.7 |
| O=C(CN(c1nc(Cl)nc2[nH]cnc12)C1CC1)N[C@@H](Cc1ccc(O)cc1)C(=O)O | 8.15 | 46.22 | 13.71 | 43.23 | 23.69 | 33.92 |
| O=C(CN(c1nc(Cl)nc2[nH]cnc12)C1CC1)N[C@@H](Cc1c[nH]c2ccccc12)C(=O)O | 3.91 | 17.55 | 5.27 | 17.84 | 8.19 | 18.3 |
| CC(C)C[C@H](NC(=O)CN(c1ncnc2c1ncn2C1CCCCO1)C1CC1)C(=O)OCc1ccccc1 (some centres undefined) | 0.04 | 26.2 | 6.47 | 34.19 | 12.79 | 28.22 |
| CCOC(=O)CN(c1nc(Cl)nc2c1ncn2C1CCCCO1)C1CC1 (centres undefined) | 5.33 | 9.92 | 11.85 | 22.64 | 14.91 | 13.04 |
| NC(=O)C[C@H](NC(=O)CN(c1nc(Cl)nc2[nH]cnc12)C1CC1)C(=O)OCc1ccccc1 | 5.3 | 24.41 | 13.49 | 36.36 | 15.13 | 32.27 |
| O=C(CN(c1ncnc2c1ncn2C1CCCCO1)C1CC1)N[C@@H](CO)C(=O)OCc1ccccc1 (some centres undefined) | 12.85 | 27.77 | 18.32 | 46.71 | 29.2 | 32.17 |
| NC(=O)CC[C@H](NC(=O)CN(c1ncnc2c1ncn2C1CCCCO1)C1CC1)C(=O)OCc1ccccc1 (some centres undefined) | 7.71 | 46.96 | 10.72 | 39.4 | 22.34 | 37.82 |
| C[C@@H](O)[C@H](NC(=O)CN(c1ncnc2c1ncn2C1CCCCO1)C1CC1)C(=O)OCc1ccccc1 (some centres undefined) | 2.34 | 23.61 | 6.53 | 28.36 | 10.91 | 23.38 |
| CC[C@H](C)[C@H](NC(=O)CN(c1nc(Cl)nc2[nH]cnc12)C1CC1)C(=O)OCc1ccccc1 | 3.38 | 41.39 | 6.9 | 40.63 | 21.97 | 36.28 |
| O=C(OCc1ccccc1)[C@@H]1CCCN1C(=O)CN(c1ncnc2c1ncn2C1CCCCO1)C1CC1 (some centres undefined) | 6.63 | 32.25 | 7.85 | 36.73 | 17.49 | 23.31 |
| C[C@@H](O)[C@H](NC(=O)CN(c1nc(Cl)nc2[nH]cnc12)C1CC1)C(=O)OCc1ccccc1 | 6.29 | 21.86 | 12.76 | 29.7 | 30.7 | 29.88 |

| Structure (SMILES) | Activity [1] [%] | Activity [2] [%] | Activity [3] [%] | Activity [4] [%] | Activity [5] [%] | Activity [6] [%] |
| --- | --- | --- | --- | --- | --- | --- |
| O=C(CN(c1nc(Cl)nc2[nH]cnc12)C1CC1)N[C@@H](Cc1cnc[nH]1)C(=O)OCc1ccccc1 | 4.18 | 29.06 | 5.05 | 26.6 | 10.15 | 15.04 |
| CC(C)C[C@H](NC(=O)CN(c1nc(Cl)nc2[nH]cnc12)C1CC1)C(=O)OCc1ccccc1 | 4.29 | 33.91 | 5.26 | 27.26 | 8.58 | 15.21 |
| N=C(N)NCCC[C@H](NC(=O)CN(c1ncnc2c1ncn2C1CCCCO1)C1CC1)C(=O)OCc1ccccc1 (some centres undefined) | 7.97 | 34.27 | 19.6 | 52.35 | 38.16 | 61.58 |
| O=C(CN(c1nc(Cl)nc2[nH]cnc12)C1CC1)N[C@@H](Cc1ccccc1)C(=O)O | 4.19 | 29.37 | 6.09 | 32.02 | 8.84 | 26.55 |
| CC(C)[C@H](NC(=O)CN(c1nc(Cl)nc2[nH]cnc12)C1CC1)C(=O)O | 3.04 | 31.15 | 7.86 | 38.79 | 17.06 | 30.28 |
| O=C(OCc1ccccc1)[C@@H]1CCCN1C(=O)CN(c1nc(Cl)nc2[nH]cnc12)C1CC1 | 17.63 | 33.18 | 31.09 | 34.37 | 38.35 | 43.28 |
| CC(C)[C@H](NC(=O)CN(c1ncnc2c1ncn2C1CCCCO1)C1CC1)C(=O)OCc1ccccc1 (some centres undefined) | 5.65 | 21.83 | 21.08 | 34.85 | 25.79 | 30.14 |
| O=C(CN(c1nc(Cl)nc2[nH]cnc12)C1CC1)N[C@@H](CCC(=O)OCc1ccccc1)C(=O)OCc1ccccc1 | 29.87 | 52.8 | 44.46 | 53.74 | 45.94 | 50 |
| O=C(CN(c1nc(Cl)nc2[nH]cnc12)C1CC1)N[C@@H](CC(=O)OCc1ccccc1)C(=O)OCc1ccccc1 | 2.87 | 34.7 | 6.68 | 22.4 | 12.14 | 15.58 |
| C[C@H](NC(=O)CN(c1nc(Cl)nc2[nH]cnc12)C1CC1)C(=O)O | 6.68 | 48.1 | 14.68 | 44.64 | 28.41 | 43.53 |
| O=C(O)[C@@H]1CCCN1C(=O)CN(c1nc(Cl)nc2[nH]cnc12)C1CC1 | 6.67 | 31.47 | 7.29 | 34.94 | 23.61 | 25.99 |
| O=C(CN(c1nc(Cl)nc2[nH]cnc12)C1CC1)N[C@@H](Cc1cnc[nH]1)C(=O)O | 3.39 | 31.71 | 4.42 | 27.68 | 10.66 | 16.07 |
| CC[C@H](C)[C@H](NC(=O)CN(c1ncnc2c1ncn2C1CCCCO1)C1CC1)C(=O)OCc1ccccc1 (some centres undefined) | 9.15 | 25.56 | 16.43 | 27.35 | 20.42 | 22.57 |
| O=C(CN(c1ncnc2c1ncn2C1CCCCO1)C1CC1)NCC(=O)OCc1ccccc1 (centres undefined) | 0.06 | 55.72 | 7.26 | 40.44 | 17.23 | 25.94 |
| NC(=O)CC[C@H](NC(=O)CN(c1nc(Cl)nc2[nH]cnc12)C1CC1)C(=O)OCc1ccccc1 | 19.17 | 30.76 | 31.07 | 33.07 | 36.04 | 42.83 |
| O=C(CN(c1ncnc2c1ncn2C1CCCCO1)C1CC1)N[C@@H](CC(=O)OCc1ccccc1)C(=O)OCc1ccccc1 (some centres undefined) | 0.03 | 31.81 | 0.06 | 38.15 | 7.82 | 25.07 |
| CSCC[C@H](NC(=O)CN(c1ncnc2c1ncn2C1CCCCO1)C1CC1)C(=O)OCc1ccccc1 (some centres undefined) | 12.89 | 30.04 | 17.47 | 40.97 | 28.66 | 42.7 |
